Reference: patent US20130101615A1, “METHODS FOR PREVENTING OR TREATING A DISEASE OR CONDITION ASSOCIATED WITH MYCOBACTERIUM AVIUM SUBSPECIES PARATUBERCULOSIS” (priority 2005, published 2013)
“And” between values parts separate entries of the source, which are not always exact repeats. Equal values may be shown once. “Also recorded” adds a separate entry of the source. Read-outs that look alike come from different tables or passages of the source.

How the values were obtained:
MAP ATCC 19698 (bovine) = type: cell-based, Mycobacterium avium subspecies paratuberculosis; settings: for %-ΔcGI: Example 5; for % ΔcGI: Bovine MAP 19698, vs 3.2% DMSO control
M. avium ATCC 25291 = type: cell-based, M. avium subspecies avium; settings: for %-ΔcGI / effect on growth, in words: M. avium ATCC 25291; for %-ΔcGI: Example 5; for % ΔcGI: M. avium 25291, vs 3.2% DMSO control
M. avium 101 = type: cell-based, M. avium subspecies avium; settings: for %-ΔcGI: Example 5; for % ΔcGI: vs 3.2% DMSO control
[1] = test system: MAP Dominic (ATCC 43545), isolated from human with Crohn's disease; type: cell-based, Mycobacterium avium subspecies paratuberculosis; settings: for %-ΔcGI: Example 5; for %−ΔcGI (percent decrease in cumulative GI): MAP Dominic; for % ΔcGI: vs 3.2% DMSO control
MAP = experiment: Growth inhibition of MAP (strain not stated or MAP strains in general); settings: for %−ΔcGI (percent decrease in cumulative GI): Example 3, strain not stated; for effect on growth of MAP, in words: MAP strains in general
[2] = test system: MAP 303 (ruminant with Johne's disease); experiment: Radiometric BACTEC growth inhibition, MAP 303; type: cell-based, Mycobacterium avium subspecies paratuberculosis; settings: Bovine MAP 303, vs 3.2% DMSO control
[3] = test system: MAP UCF 4, isolated from human with Crohn's disease; experiment: Radiometric BACTEC growth inhibition, MAP UCF4; type: cell-based, Mycobacterium avium subspecies paratuberculosis; settings: for % ΔcGI: Human MAP UCF4, vs 3.2% DMSO control
[4] = 1 μg/ml, Human MAP Dominic Expt. 1
[5] = 1 μg/ml, Human MAP Dominic Expt. 2
[6] = 4 μg/ml, Human MAP Dominic Expt. 1
[7] = 4 μg/ml, Human MAP Dominic Expt. 2
[8] = 16 μg/ml, Human MAP Dominic Expt. 1
[9] = 16 μg/ml, Human MAP Dominic Expt. 2
[10] = 64 μg/ml, Human MAP Dominic Expt. 1
[11] = 64 μg/ml, Human MAP Dominic Expt. 2

O=C1CCC(N2C(=O)c3ccccc3C2=O)C(=O)N1 (racemic) [Thalidomide (±), thalidomide]
%-ΔcGI (MAP ATCC 19698 (bovine); 1 μg/ml, MAP ATCC 19698): 4% | %-ΔcGI (MAP ATCC 19698 (bovine); 4 μg/ml, MAP ATCC 19698): 8% | %-ΔcGI (MAP ATCC 19698 (bovine); 16 μg/ml, MAP ATCC 19698): −7% | %−ΔcGI (percent decrease in cumulative GI) (MAP ATCC 19698 (bovine); 64 μg/ml, MAP ATCC 19698): 26% | %-ΔcGI (MAP ATCC 19698 (bovine); 64 μg/ml, MAP ATCC 19698): −26% | %-ΔcGI (M. avium ATCC 25291; 1 μg/ml): 34% | %-ΔcGI (M. avium ATCC 25291; 4 μg/ml): 37% | %-ΔcGI (M. avium ATCC 25291; 16 μg/ml): 28% | %-ΔcGI (M. avium ATCC 25291; 64 μg/ml): 25% | effect on growth, in words (M. avium ATCC 25291): no dose-dependent inhibition | effect on growth, in words (M. avium 101): no dose-dependent inhibition | %-ΔcGI (M. avium 101; 1 μg/ml): −20% | %-ΔcGI (M. avium 101; 4 μg/ml): −5% | %-ΔcGI (M. avium 101; 16 μg/ml): 6% | %-ΔcGI (M. avium 101; 64 μg/ml): −14% | %-ΔcGI ([1]; 1 μg/ml, MAP Dominic Expt A): −2% | %-ΔcGI ([1]; 1 μg/ml, MAP Dominic Expt B): 0% | %-ΔcGI ([1]; 4 μg/ml, MAP Dominic Expt A): −4% | %-ΔcGI ([1]; 4 μg/ml, MAP Dominic Expt B): −2% | %-ΔcGI ([1]; 16 μg/ml, MAP Dominic Expt A): −9% | %-ΔcGI ([1]; 16 μg/ml, MAP Dominic Expt B): −5% | %−ΔcGI (percent decrease in cumulative GI) ([1]; 64 μg/ml): 31% | %-ΔcGI ([1]; 64 μg/ml, MAP Dominic Expt A): −31% | %-ΔcGI ([1]; 64 μg/ml, MAP Dominic Expt B): −13%

Nc1ccc(O)c(C(=O)O)c1 [5-ASA, 5-aminosalicylic acid]
effect on proliferation / cumulative growth index, in words (MAP ATCC 19698 (bovine); MAP ATCC 19698): inhibited the proliferation of MAP (ATCC 19698) in a dose-dependent manner | effect on growth, in words (M. avium 101): little effect

Sc1ncnc2nc[nH]c12 [6-MP, 6-mercaptopurine]
%−ΔcGI (percent decrease in cumulative GI) (MAP ATCC 19698 (bovine); 4 μg/ml, MAP 19698, Example 3): ~80% and 84% | %−ΔcGI (percent decrease in cumulative GI) (MAP; 1 μg/ml): ≥ 43% | %−ΔcGI (percent decrease in cumulative GI) (MAP; 4 μg/ml): ≥ 84% | effect on growth of MAP, in words (MAP): inhibit the growth kinetics of MAP | effect on growth, in words (M. avium ATCC 25291): less susceptibility to 6-MP than to methotrexate | effect on growth, in words (M. avium 101): less susceptibility to 6-MP than to methotrexate | %−ΔcGI (percent decrease in cumulative GI) ([1]; 4 μg/ml, Example 3): 41%

CC(C)/N=c1\cc2n(-c3ccc(Cl)cc3)c3ccccc3nc-2cc1Nc1ccc(Cl)cc1 [Clofazimine, clofazimine]
% ΔcGI (MAP ATCC 19698 (bovine); 1 μg/ml): −99% | % ΔcGI (MAP ATCC 19698 (bovine); 4 μg/ml): −99% | % ΔcGI (MAP ATCC 19698 (bovine); 16 μg/ml): −99% | % ΔcGI (MAP ATCC 19698 (bovine); 64 μg/ml): −99% | % ΔcGI ([2]; 1 μg/ml): −99% | % ΔcGI ([2]; 4 μg/ml): −99% | % ΔcGI ([2]; 16 μg/ml): −99% | % ΔcGI ([2]; 64 μg/ml): −99% | % ΔcGI ([3]; 1 μg/ml): −99% | % ΔcGI ([3]; 4 μg/ml): −99% | % ΔcGI ([3]; 16 μg/ml): −99% | % ΔcGI ([3]; 64 μg/ml): −99% | % ΔcGI (M. avium ATCC 25291; 1 μg/ml): −98% | % ΔcGI (M. avium ATCC 25291; 4 μg/ml): −98% | % ΔcGI (M. avium ATCC 25291; 16 μg/ml): −98% | % ΔcGI (M. avium ATCC 25291; 64 μg/ml): −99% | % ΔcGI (M. avium 101; 1 μg/ml): −98% | % ΔcGI (M. avium 101; 4 μg/ml): −98% | % ΔcGI (M. avium 101; 16 μg/ml): −98% | % ΔcGI (M. avium 101; 64 μg/ml): −99% | % ΔcGI [1, 4]: −99% | % ΔcGI [1, 5]: −99% | % ΔcGI [1, 6]: −99% | % ΔcGI [1, 7]: −99% | % ΔcGI [1, 8]: −99% | % ΔcGI [1, 9]: −99% | % ΔcGI [1, 10]: −99% | % ΔcGI [1, 11]: −99% | %−ΔcGI (percent decrease in cumulative GI) ([1]; at 0.5 (concentration unit not given)): 97%

O=C1CCCC(=O)N1O [HPD]
%-ΔcGI (MAP ATCC 19698 (bovine); 1 μg/ml, MAP ATCC 19698): 22% | %-ΔcGI (MAP ATCC 19698 (bovine); 4 μg/ml, MAP ATCC 19698): 7% | %-ΔcGI (MAP ATCC 19698 (bovine); 16 μg/ml, MAP ATCC 19698): −3% | %−ΔcGI (percent decrease in cumulative GI) (MAP ATCC 19698 (bovine); 64 μg/ml, MAP ATCC 19698): −44% | %-ΔcGI (MAP ATCC 19698 (bovine); 64 μg/ml, MAP ATCC 19698): −44% | effect on growth of MAP, in words (MAP): the most potent inhibitory agent evaluated; also recorded: inhibits the growth of MAP | %-ΔcGI (M. avium ATCC 25291; 1 μg/ml): −4% | %-ΔcGI (M. avium ATCC 25291; 4 μg/ml): 47% | %-ΔcGI (M. avium ATCC 25291; 16 μg/ml): 22% | %-ΔcGI (M. avium ATCC 25291; 64 μg/ml): 21% | effect on growth, in words (M. avium ATCC 25291): no dose-dependent inhibition | effect on growth, in words (M. avium 101): no dose-dependent inhibition | %-ΔcGI (M. avium 101; 1 μg/ml): −12% | %-ΔcGI (M. avium 101; 4 μg/ml): −52% | %-ΔcGI (M. avium 101; 16 μg/ml): −21% | %-ΔcGI (M. avium 101; 64 μg/ml): −36% | %-ΔcGI ([1]; 1 μg/ml, MAP Dominic Expt A): −5% | %-ΔcGI ([1]; 1 μg/ml, MAP Dominic Expt B): 16% | %-ΔcGI ([1]; 4 μg/ml, MAP Dominic Expt A): −7% | %-ΔcGI ([1]; 4 μg/ml, MAP Dominic Expt B): 6% | %-ΔcGI ([1]; 16 μg/ml, MAP Dominic Expt A): −18% | %-ΔcGI ([1]; 16 μg/ml, MAP Dominic Expt B): 12% | %−ΔcGI (percent decrease in cumulative GI) ([1]; 64 μg/ml): 46% | %-ΔcGI ([1]; 64 μg/ml, MAP Dominic Expt A): −46% | %-ΔcGI ([1]; 64 μg/ml, MAP Dominic Expt B): −19%

CO[C@H]1C[C@@H]2CC[C@@H](C)[C@@](O)(O2)C(=O)C(=O)N2CCCC[C@H]2C(=O)O[C@H]([C@H](C)C[C@@H]2CC[C@@H](O)[C@H](OC)C2)CC(=O)[C@H](C)/C=C(\C)[C@@H](O)[C@@H](OC)C(=O)[C@H](C)C[C@H](C)/C=C/C=C/C=C/1C [Rapamycin, sirolimus (rapamycin)]
% ΔcGI (MAP ATCC 19698 (bovine); 1 μg/ml): −3% | % ΔcGI (MAP ATCC 19698 (bovine); 4 μg/ml): −1% | % ΔcGI (MAP ATCC 19698 (bovine); 16 μg/ml): −18% | % ΔcGI (MAP ATCC 19698 (bovine); 64 μg/ml): −43% | % ΔcGI ([2]; 1 μg/ml): 4% | % ΔcGI ([2]; 4 μg/ml): −11% | % ΔcGI ([2]; 16 μg/ml): −15% | % ΔcGI ([2]; 64 μg/ml): −39% | % ΔcGI ([3]; 1 μg/ml): −14% | % ΔcGI ([3]; 4 μg/ml): −9% | % ΔcGI ([3]; 16 μg/ml): −29% | % ΔcGI ([3]; 64 μg/ml): −76% | %−ΔcGI (percent decrease in cumulative GI) ([3]; 64 μg/ml, MAP UCF 4): 76% | inhibition, in words ([3]; lower concentrations (1 and 16 μg/ml), MAP UCF 4): no inhibition | % ΔcGI (M. avium ATCC 25291; 1 μg/ml): 10% | % ΔcGI (M. avium ATCC 25291; 4 μg/ml): 7% | % ΔcGI (M. avium ATCC 25291; 16 μg/ml): 11% | % ΔcGI (M. avium ATCC 25291; 64 μg/ml): −18% | effect on growth, in words (M. avium ATCC 25291): no inhibition; also recorded: no effect | % ΔcGI (M. avium 101; 1 μg/ml): −19% | % ΔcGI (M. avium 101; 4 μg/ml): −7% | % ΔcGI (M. avium 101; 16 μg/ml): −28% | % ΔcGI (M. avium 101; 64 μg/ml): −39% | % ΔcGI [1, 4]: 21% | % ΔcGI [1, 5]: 0% | % ΔcGI [1, 6]: 13% | % ΔcGI [1, 7]: −7% | % ΔcGI [1, 8]: −10% | % ΔcGI [1, 9]: −9% | % ΔcGI [1, 10]: −58% | % ΔcGI [1, 11]: −44%
